In US9938292B2 (GUANGDONG ZHONGSHENG PHARMACEUTICAL CO., LTD, priority 2014, dated 2018):

System: Hedgehog signaling pathway
Assay: Gli-Luc luciferase reporter gene assay in C3H10T1/2/Gli-Luc cells under Shh-N stimulation
Type: cell-based
Settings: Mus musculus, C3H 10T1/2, 24 h, luciferase RLU, read-out: biological activity: IC50 of the inhibitory activities of compounds on the hedgehog pathway
Procedure, shortened: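 IC50 derived by curve fitting of luciferase RLU against log compound concentration. Stable C3H10T1/2/Gli-Luc cells, seeded overnight, were co-treated 24 h with serially diluted compound (7 points, duplicate wells) and 30 nM Shh-N-containing HEK293 conditioned medium before lysis and luminescence readout.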

| IC50 | Structure (SMILES) |
| --- | --- |
| 500 to 1000 nM | COc1c(-c2ccc(N3C[C@@H](C)N(C(=O)CC(F)(F)F)[C@@H](C)C3)nc2)cnc2c(-c3ccc(C#N)cc3)cccc12 [Embodiment 197] |
| 50 to 100 nM | COc1c(-c2ccc(N3C[C@@H](C)N(C(=O)CN)[C@@H](C)C3)nc2)cnc2c(-c3ccc(C#N)cc3)cccc12 [Embodiment 198] |
| 100 to 500 nM | COc1c(-c2ccc(N3C[C@@H](C)N(C(=O)C(C)N)[C@@H](C)C3)nc2)cnc2c(-c3ccc(C#N)cc3)cccc12 (stereo partly drawn) [Embodiment 199] |
| ≤ 50 nM | COc1c(-c2ccc(N3C[C@@H](C)N(C(=O)c4cccnc4)[C@@H](C)C3)cc2)cnc2c(-c3ccc(C#N)cc3)cccc12 [Embodiment 200] |
| ≤ 50 nM | COc1c(-c2ccc(N3C[C@@H](C)N(C(=O)c4ccncc4)[C@@H](C)C3)cc2)cnc2c(-c3ccc(C#N)cc3)cccc12 [Embodiment 201] |
| ≤ 50 nM | CCC(=O)N1[C@H](C)CN(c2ccc(-c3cnc4c(-c5ccc(C#N)cc5C)cccc4c3OC)cn2)C[C@@H]1C [Embodiment 202] |
| ≤ 50 nM | COc1c(-c2ccc(N3C[C@@H](C)N(C(=O)c4cncc(C)c4)[C@@H](C)C3)cc2)cnc2c(-c3ccc(C#N)cc3)cccc12 [Embodiment 203] |
| ≤ 50 nM | CCC(=O)N1[C@H](C)CN(c2ccc(-c3cnc4c(-c5ccc(C#N)cc5)cccc4c3OC)cn2)C[C@@H]1C [Embodiment 204] |
| ≤ 50 nM | COc1c(-c2ccc(N3C[C@@H](C)N(c4nccs4)[C@@H](C)C3)nc2)cnc2c(-c3ccc(C#N)cc3)cccc12 [Embodiment 206, 4-(3-(6-((3S,5R)-3,5-dimethyl-4-(thiazol-2-yl)piperazin-1-yl)pyridin-3-yl)-4-methoxyquinolin-8-yl)benzonitrile] |
| 100 to 500 nM | COc1c(N2CCN(C(=O)Cc3ccncc3)CC2)cnc2c(-c3ccc(C#N)cc3)cccc12 [Embodiment 207, 4-(4-methoxy-3-(4-(2-(pyridin-4-yl)acetyl)piperazin-1-yl)quinolin-8-yl)benzonitrile] |
| 100 to 500 nM | COc1c(N2CCNCC2)cnc2c(-c3ccc(C#N)cc3)cccc12 [Embodiment 208] |
| ≤ 50 nM | COc1c(N2CCN(C(=O)Nc3ccncc3)CC2)cnc2c(-c3ccc(C#N)cc3)cccc12 [Embodiment 209] |
| ≤ 50 nM | COc1c(N2CCN(C(=O)NC3CCCCC3)CC2)cnc2c(-c3ccc(C#N)cc3)cccc12 [Embodiment 210] |
| ≤ 50 nM | COc1c(N2CCN(C(=O)Nc3cccc(C)c3)CC2)cnc2c(-c3ccc(C#N)cc3)cccc12 [Embodiment 211] |
| ≤ 50 nM | COc1c(N2CCN(C(=O)NC3CCOCC3)CC2)cnc2c(-c3ccc(C#N)cc3)cccc12 [Embodiment 212] |
| ≤ 50 nM | COc1c(N2CCN(C(=O)N(C)C3CCOCC3)CC2)cnc2c(-c3ccc(C#N)cc3)cccc12 [Embodiment 213] |
| ≤ 50 nM | COc1c(N2CCN(C(=O)CC(C)(C)O)CC2)cnc2c(-c3ccc(C#N)cc3)cccc12 [Embodiment 214] |
| 100 to 500 nM | COc1c(N2CCN(C(C)=O)CC2)cnc2c(-c3ccc(C#N)cc3)cccc12 [Embodiment 215] |
| 100 to 500 nM | COc1c(N2CCN(C(=O)CC3CCOCC3)CC2)cnc2c(-c3ccc(C#N)cc3)cccc12 [Embodiment 216] |
| 100 to 500 nM | COc1c(N2CCN(c3cc(C)nc(C)c3)CC2)cnc2c(-c3ccc(C#N)cc3)cccc12 [Embodiment 217, 4-(3-(4-(2,6-dimethylpyridin-4-yl)piperazin-1-yl)-4-methoxyquinolin-8-yl)benzonitrile] |

Continued, compound first:

| Structure (SMILES) | IC50 |
| --- | --- |
| COC(=O)N1[C@H](C)CN(c2ccc(-c3cnc4c(-c5ccc(C#N)cc5)cccc4c3OC)cc2)C[C@@H]1C [Embodiment 182] | ≤ 50 nM |
| CCOC(=O)N1[C@H](C)CN(c2ccc(-c3cnc4c(-c5ccc(C#N)cc5)cccc4c3OC)cc2)C[C@@H]1C [Embodiment 183] | 50 to 100 nM |
| CCCOC(=O)N1[C@H](C)CN(c2ccc(-c3cnc4c(-c5ccc(C#N)cc5)cccc4c3OC)cc2)C[C@@H]1C [Embodiment 184] | 50 to 100 nM |
| COc1c(-c2ccc(N3C[C@@H](C)N(C(=O)C(C)(C)O)[C@@H](C)C3)cc2)cnc2c(-c3ccc(C#N)cc3)cccc12 [Embodiment 185] | 100 to 500 nM |
| COc1c(-c2ccc(N3C[C@@H](C)N(C(=O)c4ccccn4)[C@@H](C)C3)cc2)cnc2c(-c3ccc(C#N)cc3)cccc12 [Embodiment 186] | ≤ 50 nM |
| COc1c(-c2ccc(N3C[C@@H](C)N(C(=O)c4ncc[nH]4)[C@@H](C)C3)cc2)cnc2c(-c3ccc(C#N)cc3)cccc12 [Embodiment 187] | ≤ 50 nM |
| COc1c(-c2ccc(N3C[C@@H](C)N(S(C)(=O)=O)[C@@H](C)C3)nc2)cnc2c(-c3ccc(C#N)cc3)cccc12 [Embodiment 188, 4-(3-(6-(4-methylsulfonyl-3,5-dimethylpiperazin-1-yl)pyridin-3-yl)-4-methoxyquinolin-8-yl)benzonitrile] | ≤ 50 nM |
| COc1c(-c2ccc(N3C[C@@H](C)N(C(=O)CO)[C@@H](C)C3)nc2)cnc2c(-c3ccc(C#N)cc3)cccc12 [Embodiment 189, 4-(3-(6-(4-(2-hydroxyacetyl)-3,5-dimethylpiperazin-1-yl)pyridin-3-yl)-4-methoxyquinolin-8-yl)benzonitrile] | ≤ 50 nM |
| COc1c(-c2ccc(N3Cc4nnc(C(F)(F)F)n4C(C)C3)cc2)cnc2c(-c3ccc(C#N)cc3)cccc12 (stereo not drawn) [Embodiment 190, 4-(4-methoxy-3-(4-(5-methyl-3-(trifluoromethyl)-5,6-dihydro-[1,2,4]triazolo[4,3-a]pyrazin-7(8H)-yl)phenyl)quinolin-8-yl)benzonitrile] | ≤ 50 nM |
| COc1c(-c2ccc(N3CC(C)N(C(C)=O)C(C(C)(C)O)C3)cc2)cnc2c(-c3ccc(C#N)cc3)cccc12 (stereo not drawn) [Embodiment 191, 4-(3-(4-(4-acetyl-3-(2-hydroxypropan-2-yl)-5-methylpiperazin-1-yl)phenyl)-4-methoxyquinolin-8-yl)benzonitrile] | ≤ 50 nM |
| COc1c(-c2ccc(N3C[C@@H](C(C)(C)O)O[C@@H](C)C3)cc2)cnc2c(-c3ccc(C#N)cc3)cccc12 [Embodiment 192, 4-(3-(4-((2S, 6S)-2-(2-hydroxypropan-2-yl)-6-methylmorpholino)phenyl)-4-methoxyquinolin-8-yl)benzonitrile] | ≤ 50 nM |
| COc1c(-c2ccc(N3C[C@@H](C)N(C(=O)C(C)F)[C@@H](C)C3)nc2)cnc2c(-c3ccc(C#N)cc3)cccc12 (stereo partly drawn) [Embodiment 193, 4-(3-(6-((3S, 5R)-4-(2-fluoropropanoyl)-3,5-dimethylpiperazin-1-yl)pyridin-3-yl)-4-methoxyquinolin-8-yl)benzonitrile] | 100 to 500 nM |
| COc1c(-c2ccc(N3C[C@@H](C)N(C(=O)C(C)(F)F)[C@@H](C)C3)nc2)cnc2c(-c3ccc(C#N)cc3)cccc12 [Embodiment 194] | ≤ 50 nM |
| COc1c(-c2ccc(N3C[C@@H](C)N(C(=O)C(C)O)[C@@H](C)C3)nc2)cnc2c(-c3ccc(C#N)cc3)cccc12 (stereo partly drawn) [Embodiment 195] | 50 to 100 nM |
| COC(=O)N1[C@H](C)CN(c2ccc(-c3cnc4c(-c5ccc(C#N)cc5)cccc4c3OC)cn2)C[C@@H]1C [Embodiment 196] | 100 to 500 nM |
| CCC(=O)N1[C@@H]2CC[C@H]1CN(c1ccc(-c3cnc4c(-c5ccc(C#N)cc5)cccc4c3OC)cn1)C2 [Embodiment 205, 4-(4-methoxy-3-(6-(8-propionyl-3,8-diazabicyclo[3.2.1]octan-3-yl)pyridin-3-yl)quinolin-8-yl)benzonitrile] | 50 to 100 nM |
